Test results taken from the NIST ThermoML archive (doi:10.1021/je900306v).
± gives the expanded uncertainty stated by the source.

Conditions: Liquid, Closed cell (Static) method

FCC(F)(F)F [1,1,1,2-tetrafluoroethane]
vapor or sublimation pressure (243.1 K): 84.23 ± 2.2 kPa | vapor or sublimation pressure (248.08 K): 106.12 ± 2.3 kPa | vapor or sublimation pressure (263.01 K): 199.39 ± 2.9 kPa | vapor or sublimation pressure (283.03 K): 412.95 ± 4.7 kPa | vapor or sublimation pressure (303.12 K): 769.5 ± 8.1 kPa | vapor or sublimation pressure (328.05 K): 1488 ± 15 kPa | vapor or sublimation pressure (352.93 K): 2620.8 ± 27 kPa

C=C(F)C(F)(F)F [2,3,3,3-tetrafluoro-1-propene]
vapor or sublimation pressure (224.12 K): 38.9 ± 2 kPa | vapor or sublimation pressure (228.21 K): 48.3 ± 2 kPa | vapor or sublimation pressure (233.12 K): 62 ± 2 kPa | vapor or sublimation pressure (234.21 K): 65.5 ± 2 kPa | vapor or sublimation pressure (238.08 K): 78.7 ± 2 kPa | vapor or sublimation pressure (243.03 K): 98.8 ± 2 kPa | vapor or sublimation pressure (247.95 K): 121.7 ± 2 kPa | vapor or sublimation pressure (252.91 K): 149.2 ± 2 kPa | vapor or sublimation pressure (255.49 K): 165.3 ± 2 kPa | vapor or sublimation pressure (257.7 K): 180.4 ± 2 kPa | vapor or sublimation pressure (258.61 K): 186.9 ± 2 kPa | vapor or sublimation pressure (263.14 K): 221.7 ± 2.1 kPa | vapor or sublimation pressure (268.1 K): 265.1 ± 2.1 kPa | vapor or sublimation pressure (272.98 K): 313.9 ± 2.1 kPa | vapor or sublimation pressure (277.96 K): 370.5 ± 2.1 kPa | vapor or sublimation pressure (283.09 K): 437.1 ± 2.2 kPa | vapor or sublimation pressure (288.08 K): 509.4 ± 2.2 kPa | vapor or sublimation pressure (292.87 K): 587.3 ± 2.3 kPa | vapor or sublimation pressure (297.97 K): 679.4 ± 2.4 kPa | vapor or sublimation pressure (303.12 K): 783.2 ± 2.4 kPa | vapor or sublimation pressure (308.11 K): 894.6 ± 2.6 kPa | vapor or sublimation pressure (313.09 K): 1018 ± 2.7 kPa | vapor or sublimation pressure (315.59 K): 1083.5 ± 2.7 kPa | vapor or sublimation pressure (318.08 K): 1153 ± 2.8 kPa | vapor or sublimation pressure (320.61 K): 1224 ± 2.9 kPa | vapor or sublimation pressure (323.11 K): 1301.1 ± 3 kPa | vapor or sublimation pressure (325.58 K): 1380 ± 3.1 kPa | vapor or sublimation pressure (333.06 K): 1638.3 ± 3.4 kPa | vapor or sublimation pressure (338.05 K): 1831 ± 3.7 kPa | vapor or sublimation pressure (343.02 K): 2039 ± 3.9 kPa | vapor or sublimation pressure (348.01 K): 2265.6 ± 4.2 kPa | vapor or sublimation pressure (352.98 K): 2511.5 ± 4.6 kPa | vapor or sublimation pressure (357.97 K): 2778.2 ± 4.9 kPa | vapor or sublimation pressure (362.94 K): 3067.1 ± 5.3 kPa | vapor or sublimation pressure (365.93 K): 3218.4 ± 5.4 kPa
